{"source": "paper PMC5125089", "about": "(Lung cancer (Amsterdam, Netherlands), 2015)", "key": {"[1]": {"test_system": "histone H3 acetylation", "test": "Histone H3 acetylation status in PBMCs", "assay_type": "in vivo, patients", "conditions": "for normalized H3 acetylation values, mean increase: P < 0.01"}, "[2]": {"test_system": "histone H4 acetylation", "test": "Histone H4 acetylation status in PBMCs", "assay_type": "in vivo, patients", "conditions": "for normalized H4 acetylation values, mean increase: P < 0.01"}, "[3]": {"test_system": "EGFR pathway components", "test": "EGFR pathway components in skin biopsies", "assay_type": "in vivo, patients", "conditions": "romidepsin monotherapy"}, "[4]": {"test_system": "NSCLC cell lines", "conditions": "cited from earlier work"}, "[5]": {"test_system": "lung cancer", "conditions": "romidepsin monotherapy, previously treated lung cancer; cited from earlier work"}, "[6]": {"conditions": "phase 1 monotherapy trial; cited from earlier work"}, "[7]": {"conditions": "both 8 mg/m^2 and 10 mg/m^2 dose levels, P < 0.001"}}}
{"smiles": "C#Cc1cccc(Nc2ncnc3cc(OCCOC)c(OCCOC)cc23)c1", "note": "[erlotinib]", "values": [{"measurement": "Acneiform Rash, Possible Relationship to Erlotinib", "setting": "human, in vivo", "value": "Y (7/7)"}, {"measurement": "Acute kidney injury, Possible Relationship to Erlotinib", "setting": "human, in vivo", "value": "Y (1/1)"}, {"measurement": "Anorexia, Possible Relationship to Erlotinib", "setting": "human, in vivo", "value": "Y (9/9)"}, {"measurement": "Diarrhea, Possible Relationship to Erlotinib", "setting": "human, in vivo", "value": "Y (9/11)"}, {"measurement": "Dry Skin, Possible Relationship to Erlotinib", "setting": "human, in vivo", "value": "Y (2/2)"}, {"measurement": "Fatigue, Possible Relationship to Erlotinib", "setting": "human, in vivo", "value": "Y (9/14)"}, {"measurement": "Mouth Blister, Possible Relationship to Erlotinib", "setting": "human, in vivo", "value": "Y (4/4)"}, {"measurement": "Nausea, Possible Relationship to Erlotinib", "setting": "human, in vivo", "value": "Y (4/14)"}, {"measurement": "Vomiting, Possible Relationship to Erlotinib", "setting": "human, in vivo", "value": "Y (5/14)"}, {"measurement": "Weight Loss, Possible Relationship to Erlotinib", "setting": "human, in vivo", "value": "Y (2/3)"}, {"measurement": "↑ Glucose, Possible Relationship to Erlotinib", "setting": "human, in vivo", "value": "Y (1/3)"}, {"measurement": "↓ Hgb/Anemia, Possible Relationship to Erlotinib", "setting": "human, in vivo", "value": "Y (2/5)"}, {"measurement": "Dyspepsia, Possible Relationship to Erlotinib", "setting": "in vivo", "value": "N"}, {"measurement": "Sinus tachycardia, Possible Relationship to Erlotinib", "setting": "in vivo", "value": "N"}, {"measurement": "↓ Potassium, Possible Relationship to Erlotinib", "setting": "in vivo", "value": "N"}]}
{"smiles": "C/C=C1\\NC(=O)[C@H]2CSSCC/C=C/[C@H](CC(=O)N[C@H](C(C)C)C(=O)N2)OC(=O)[C@H](C(C)C)NC1=O", "note": "[romidepsin]", "values": [{"measurement": "normalized H3 acetylation values, mean increase", "setting": "[1]; 8 mg/m^2 cohort", "value": "2.10 ± 0.71"}, {"measurement": "normalized H3 acetylation values, mean increase", "setting": "[1]; 10 mg/m^2 cohort", "value": "2.18 ± 1.09"}, {"measurement": "effect on H3 histone acetylation", "setting": "[1]; [7]", "value": "concomitant increase"}, {"measurement": "normalized H4 acetylation values, mean increase", "setting": "[2]; 8 mg/m^2 cohort", "value": "3.20 ± 2.40"}, {"measurement": "normalized H4 acetylation values, mean increase", "setting": "[2]; 10 mg/m^2 cohort", "value": "2.26 ± 0.47"}, {"measurement": "effect on H4 histone acetylation", "setting": "[2]; [7]", "value": "concomitant increase"}, {"measurement": "effect on expression of EGFR, MAPK, or phospho-MAPK", "setting": "[3]", "value": "no discernible effect"}, {"measurement": "effect on expression of phosphorylated EGFR", "setting": "[3]; day 3 pre-erlotinib, P = 0.09", "value": "trend toward decreased expression"}, {"measurement": "maximum tolerated dose of romidepsin", "setting": "in combination with erlotinib 150 mg orally daily, Days 1, 8, and 15 every 28 days, IV, with multi-drug antiemetic prophylaxis", "value": 8, "unit": "mg/m^2"}, {"measurement": "IC50 against NSCLC cell lines in vitro", "setting": "[4]", "value": 2.25, "unit": "ng/mL"}, {"measurement": "patients who achieved stable disease", "setting": "[5]", "value": "9 of 18"}, {"measurement": "dose-limiting toxicities", "setting": "[6]", "value": "grade 3 thrombocytopenia and fatigue"}]}
